Where a name gives a salt, the structure may show the parent alone.
Biological target: α7 nAChR (Rattus norvegicus (Rat), UniProt Q05941)
Experiment: [3H]-methyllycaconitine binding assay, rat brain membranes
Conditions: inhibition of [3H]-methyllycaconitine binding to rat brain membranes; Ki=IC50/(1+L/KD)
Experimental: 1. Determination of the Affinity of Test Substances for α7 nAChR by Inhibition of [^3H]-Methyllycaconitine Binding to Rat Brain Membranes
The [^3H]-methyllycaconitine binding assay is a modification of the method described by Davies et al. (Neuropharmacol. 1999, 38, 679-690).
Rat brain tissue (hippocampus or whole brain) is homogenized in homogenization buffer (10% w/v). [0.32 M sucrose, 1 mM EDTA; 0.1 mM phenylmethylsulfonyl fluoride (PMSF), 0.01% (w/v) NaN3, pH 7.4, 4° C.] at 600 rpm in a glass homogenizer. The homogenate is centrifuged (1000×g, 4° C., 10 min) and the supernatant is removed. The pellet is resuspended (20% w/v) and the suspension is centrifuged (1000×g, 4° C., […]). The two supernatants are combined and centrifuged (15 000×g, 4° C., 30 min). The pellet obtained in this way is referred to as the P2 fraction.
The P2 pellet is washed twice with binding buffer (50 mM Tris-HCl, 1 mM MgCl2, 120 mM NaCl, 5 mM KCl, 2 mM CaCl2, pH 7.4), and centrifuged (15 000×g, 4° C., 30 min).
The P2 membranes are resuspended in binding buffer and incubated in a volume of 250 μl (amount of membrane protein 0.1-0.5 mg) in the presence of 1-5 nM [^3H]methyllycaconitine, 0.1% (w/v) BSA (bovine serum albumin) and various concentrations of the test substance at 21° C. for 2.5 h. The non-specific binding is determined by incubation in the presence of 1 μM α-bungarotoxin or 100 μM nicotine or 10 μM MLA (methyllycaconitine).
The incubation is stopped by adding 4 ml of PBS (20 mM Na2HPO4, 5 mM KH2PO4, 150 mM NaCl, pH 7.4, 4° C.) and filtering through type A/E glass fiber filters (Gelman Sciences) which have previously been placed in 0.3%. (v/v) polyethyleneimine (PEI) for 3 h. The filters are washed twice with 4 ml of PBS (4° C.), and the bound radioactivity is determined by scintillation measurement. All the assays are carried out in triplicate. The dissociation constant Ki of the test substance was determined from the IC50 of the compounds (concentration of the test substance at which 50% of the ligand bound to the receptor is displaced), the dissociation constant KD and the concentration L of [^3H]-methyllycaconitine using the equation Ki=IC50/(1+L/KD).

Sequence of α7 nAChR (Q05941 23-502): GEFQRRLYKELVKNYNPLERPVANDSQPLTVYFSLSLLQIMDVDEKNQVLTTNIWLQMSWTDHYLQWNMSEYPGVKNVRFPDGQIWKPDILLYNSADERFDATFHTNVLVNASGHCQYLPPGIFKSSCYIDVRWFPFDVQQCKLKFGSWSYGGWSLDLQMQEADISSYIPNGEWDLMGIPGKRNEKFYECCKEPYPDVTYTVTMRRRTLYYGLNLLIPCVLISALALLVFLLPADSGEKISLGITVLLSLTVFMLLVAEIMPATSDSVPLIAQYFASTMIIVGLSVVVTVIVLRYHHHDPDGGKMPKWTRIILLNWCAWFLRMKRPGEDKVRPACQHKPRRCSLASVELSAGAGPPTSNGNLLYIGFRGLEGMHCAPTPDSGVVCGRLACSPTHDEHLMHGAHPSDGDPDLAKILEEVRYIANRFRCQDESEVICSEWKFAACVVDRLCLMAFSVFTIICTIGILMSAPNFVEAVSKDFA

O=C(CC1CN2CCC1CC2)Nc1cc2cccc(Br)c2s1 (stereo not shown) [Example 1, 2-(1-Azabicyclo[2.2.2]oct-3-yl)-N-(7-bromo-1-benzothien-2-yl)acetamide hydrochloride]
Ki: 120 nM

O=C(CC1CN2CCC1CC2)Nc1ccc2cccnc2c1 (stereo not shown) [Example 3, 2-(1-Azabicyclo[2.2.2]oct-3-yl)-N-(7-quinolinyl)acetamide hydrochloride]
Ki: 280 nM

O=C(CC1CN2CCC1CC2)Nc1ccc2ccccc2c1 (stereo not shown) [Example 4, 2-(1-Azabicyclo[2.2.2]oct-3-yl)-N-(2-naphthyl)acetamide hydrochloride]
Ki: 42 nM

O=C(CC1CN2CCC1CC2)Nc1ccc2cccc([N+](=O)[O-])c2c1 (stereo not shown) [Example 5, 2-(1-Azabicyclo[2.2.2]oct-3-yl)-N-(8-nitro-2-naphthyl)acetamide hydrochloride]
Ki: 170 nM
